Values of other authors in US20220280447A1, “COMPOSITIONS AND METHODS FOR IMPROVING BRAIN FUNCTION” (HEALTH VIA MODERN NUTRITION INC., priority 2021, published 2022).
Where two headings read alike, the source gives them in different places.

Columns and labels:
[1] = rats fed diet supplemented as 30% of calories
[2] = 20-month oral administration, patient with Alzheimer's disease dementia
[3] = tested on: reactive oxygen species (ROS) production by mitochondria; details: in vitro
NF-icB activation = details: in vitro
[4] = Alzheimer's disease transgenic mice
[5] = animal models
[6] = teenagers with social anxiety disorders
[7] = Schizophrenia-like rat model
[8] = animal studies
[9] = children
[10] = in vitro studies

Q: Which “cognitive and physical performance” value [1] does the source give for `C[C@@H](O)CCOC(=O)C[C@@H](C)O` [(R)-3-hydroxyburyl (R)-3-hydroxybutyrate] here?
A: improved cognitive and physical performance

Q: With `C[C@@H](O)CCOC(=O)C[C@@H](C)O` [ketone monoester] as the compound, how does the “mood, affect, self-care, cognitive and daily activity performance” value [2] read?
A: improved markedly

Q: Which “reactive oxygen species (ROS) production by mitochondria” value [3] does the source give for `C=C(C)[C@@H]1CCC(C)=C[C@H]1c1c(O)cc(CCCCC)cc1O` [CBD, cannabidiol] here?
A: inhibits

Q: And the NF-icB activation (NF-icB activation)?
A: inhibits

Q: What about the “development of a social recognition deficit” value [4] of the same compound?
A: prevent the development of a social recognition deficit

Q: What about the “effect on adenosine A1 receptors” value (adenosine A1 receptors) of the same compound?
A: affect adenosine A1 receptors

Q: What about the “anti-anxiety and antidepressant effects” value [5] of the same compound?
A: anti-anxiety and antidepressant effects

Q: And the anxiolytic effect [6]?
A: anxiolytic effect

Q: What about the cognitive impairment [7] of the same compound?
A: improve cognitive impairment

Q: And the cortical transcriptional changes [7]?
A: reverse cortical transcriptional changes

Q: And the anti-inflammatory properties [8]?
A: strong anti-inflammatory properties

Q: And the “treatment of certain seizure disorders” value [9]?
A: effective

Q: What about the anti-inflammatory properties [10] of the same compound?
A: strong anti-inflammatory properties
